# Results published in ChEMBL document CHEMBL1126789, “Conformational effects on retinoid receptor selectivity. 1. Effect of 9-double bond geometry on retinoid X receptor activity” (J Med Chem, 1993).
# Legend:
# [1] = target: T1, Retinoic acid receptor beta (Homo sapiens, UniProt P10826); experiment: Effective concentration against Retinoic acid receptor beta
# T1 sequence (P10826 whole entry): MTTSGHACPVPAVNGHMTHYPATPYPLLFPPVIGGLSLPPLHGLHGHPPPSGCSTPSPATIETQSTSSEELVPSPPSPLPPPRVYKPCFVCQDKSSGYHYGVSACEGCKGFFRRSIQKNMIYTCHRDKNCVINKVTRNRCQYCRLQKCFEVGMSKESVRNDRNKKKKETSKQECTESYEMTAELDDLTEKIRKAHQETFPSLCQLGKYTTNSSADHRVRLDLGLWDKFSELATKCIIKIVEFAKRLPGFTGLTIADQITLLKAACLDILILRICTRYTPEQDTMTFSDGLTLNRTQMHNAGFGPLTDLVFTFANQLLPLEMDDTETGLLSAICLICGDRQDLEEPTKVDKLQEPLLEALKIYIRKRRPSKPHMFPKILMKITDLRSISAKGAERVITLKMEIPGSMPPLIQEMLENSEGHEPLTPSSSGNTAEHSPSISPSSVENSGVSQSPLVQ
# [2] = target: T2, Retinoic acid receptor RXR-alpha (Homo sapiens, UniProt P19793); experiment: Effective concentration against RXR-alpha receptor
# T2 sequence (P19793 whole entry): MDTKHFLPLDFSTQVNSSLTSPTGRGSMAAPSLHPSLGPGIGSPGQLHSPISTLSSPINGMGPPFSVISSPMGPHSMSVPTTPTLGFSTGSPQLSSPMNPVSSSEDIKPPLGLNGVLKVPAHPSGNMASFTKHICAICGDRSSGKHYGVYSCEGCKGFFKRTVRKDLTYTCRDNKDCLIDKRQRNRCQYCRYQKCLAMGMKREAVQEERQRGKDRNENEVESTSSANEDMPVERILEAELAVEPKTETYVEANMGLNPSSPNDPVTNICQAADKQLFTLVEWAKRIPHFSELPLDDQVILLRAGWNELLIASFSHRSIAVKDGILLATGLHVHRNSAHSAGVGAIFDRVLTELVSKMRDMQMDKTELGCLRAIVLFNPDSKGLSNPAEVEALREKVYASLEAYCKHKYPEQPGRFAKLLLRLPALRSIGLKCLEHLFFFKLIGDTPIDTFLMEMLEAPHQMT
# [3] = target: T3, Retinoic acid receptor gamma (Homo sapiens, UniProt P13631); experiment: Effective concentration against RAR-gamma receptor
# T3 sequence (P13631 whole entry): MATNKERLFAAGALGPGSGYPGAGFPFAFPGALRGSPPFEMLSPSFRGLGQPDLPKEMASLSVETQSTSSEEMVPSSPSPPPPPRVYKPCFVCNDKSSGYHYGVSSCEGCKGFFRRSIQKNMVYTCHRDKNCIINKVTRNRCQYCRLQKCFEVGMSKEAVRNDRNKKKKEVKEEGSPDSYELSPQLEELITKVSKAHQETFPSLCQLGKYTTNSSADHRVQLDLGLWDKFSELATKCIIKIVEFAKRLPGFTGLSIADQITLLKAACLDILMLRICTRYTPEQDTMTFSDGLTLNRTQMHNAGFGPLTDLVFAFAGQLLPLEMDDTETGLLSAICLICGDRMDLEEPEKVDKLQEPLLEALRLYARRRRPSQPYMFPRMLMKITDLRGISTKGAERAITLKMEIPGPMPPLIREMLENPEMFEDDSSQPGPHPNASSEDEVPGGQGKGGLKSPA
# [4] = target: T4, Retinoic acid receptor alpha (Homo sapiens, UniProt P10276); experiment: Effective concentration against RAR-alpha receptor
# T4 sequence (P10276 whole entry): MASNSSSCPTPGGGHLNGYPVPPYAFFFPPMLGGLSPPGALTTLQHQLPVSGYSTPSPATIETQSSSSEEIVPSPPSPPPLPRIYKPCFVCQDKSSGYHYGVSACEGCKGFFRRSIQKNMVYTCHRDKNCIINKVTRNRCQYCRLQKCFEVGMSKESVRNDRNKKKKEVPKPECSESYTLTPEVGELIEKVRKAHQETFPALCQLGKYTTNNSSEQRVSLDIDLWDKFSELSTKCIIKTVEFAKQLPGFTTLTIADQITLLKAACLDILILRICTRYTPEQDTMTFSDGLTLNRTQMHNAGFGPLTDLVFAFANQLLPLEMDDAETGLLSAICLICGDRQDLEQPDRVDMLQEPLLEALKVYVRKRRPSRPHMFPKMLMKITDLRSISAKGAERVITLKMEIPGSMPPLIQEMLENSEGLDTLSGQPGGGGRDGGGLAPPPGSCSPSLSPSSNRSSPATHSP
# [5] = target: T1, Retinoic acid receptor beta; experiment: Effective concentration against RAR-beta receptor
Structure (SMILES),EC50 [1] [nM],EC50 [2] [nM],EC50 [3] [nM],EC50 [4] [nM],EC50 [5] [nM]
C/C(=C/c1ccc2c(c1)C(C)(C)CCC2(C)C)c1ccc(C(=O)O)cc1,1900,1100,2700,,
CC1=C(/C=C/C(C)=C/c2ccc(C(=O)O)cc2)C(C)(C)CCC1,5,,35,240,
CC1=C(CC/C(C)=C\c2ccc(C(=O)O)cc2)C(C)(C)CCC1,2000,,1300,,
CC1=C(/C=C/C(C)=C\c2ccc(C(=O)O)cc2)C(C)(C)CCC1,1800,,2000,5000,
CC1(C)CCC(C)(C)c2cc(-c3ccccc3-c3ccc(C(=O)O)cc3)ccc21,3200,2800,100,,
C/C(=C/c1ccc(C(=O)O)cc1)c1ccc2c(c1)C1CCC2C1 (stereo not drawn),,,70,,
CC1=C(CC/C(C)=C/c2ccc(C(=O)O)cc2)C(C)(C)CCC1,20,1500,210,550,
C/C(=C\c1ccc(C(=O)O)cc1)c1ccc2c(c1)C1CCC2C1 (stereo not drawn),,,550,,1100

# Further lines, results first:
EC50 [1] [nM],EC50 [2] [nM],EC50 [3] [nM],EC50 [4] [nM],EC50 [5] [nM],Structure (SMILES)
40,,47,45,,C/C(=C\c1ccc2c(c1)C(C)(C)CCS2)c1ccc(C(=O)O)cc1
15,,30,27,,C/C(=C\c1ccc(C(=O)O)cc1)c1ccc2c(c1)C(C)(C)CCS2
25,,19,37,,C/C(=C\c1ccc2c(c1)C(C)(C)CCC2(C)C)c1ccc(C(=O)O)cc1
,2700,,,,C/C(=C/c1ccc(C(=O)O)cc1)c1ccc2c(c1)C(C)(C)CCC2(C)C
1500,2800,1500,2100,,C/C(=C/c1ccc2c(c1)C(C)(C)CCS2)c1ccc(C(=O)O)cc1
250,,1100,2300,,C/C(=C/c1ccc(C(=O)O)cc1)c1ccc2c(c1)C(C)(C)CCS2
